Data published in patent US20240252527A9, “NUCLEOSIDE DRUGS FOR THE TREATMENT OR PREVENTION OF CORONAVIRUS INFECTION AND THEIR USES” (Miracure Biotechnology Limited, priority 2022, published 2024).
Where two headings read alike, the source gives them in different places.

Legend:
229E = 229E MRC5 CPE assay (cytopathic experiment); format: cell-based, coronavirus 229E (HCoV-229E)
Protocol: (§1) Cells were seeded into microplates at a certain density and cultured overnight in a incubator at 5% CO2, 37° C. The next day, double-diluted compound and virus were added. It was set up a cell control group (cells without treatment with a compound or virus infection), a virus control group (cells infected with virus, no compound treatment) and a culture medium control group (medium only). Cells were cultured in the incubator for 3 days (229E) or 7 days (OC43). Cytotoxicity experiments were performed under the same conditions as antiviral experiments, but without virus infection. Cell viability was tested using a cell viability assay kit Cell Titer Glo (Promega).
(§2) The antiviral activity and cytotoxicity of the compounds were expressed by the inhibition rate (%) and cell viability (%) of the compounds against virus-induced cytopathic effects at different concentrations, respectively. Nonlinear fitting analysis on the inhibition rate and cell viability of the compounds were carried out with the GraphPad Prism, and the half effective concentration (EC50), the […] effective concentration (EC90), the half cytotoxic concentration (CC50) and the 90% cytotoxic concentration of the compound […] values were calculated.

OC43 = OC43 Huh7 CPE assay (cytopathic experiment); format: cell-based, coronavirus OC43 (HCoV-OC43); conditions: Betacoronavirus 1, OC43, Huh-7, 168 h; for EC50: read-out: OC43 Huh7 CPE assay (μM) EC50; for EC90: read-out: OC43 Huh7 CPE assay (μM) EC90
Protocol: as §1, §2

[1] = Human coronavirus 229E, MRC5, 72 h, read-out: 229E MRC5 CPE assay (μM) EC50
[2] = Human coronavirus 229E, MRC5, 72 h, read-out: 229E MRC5 CPE assay (μM) EC90
[3] = Human coronavirus 229E, MRC5, 72 h; read-out: 229E MRC5 CPE assay (μM) EC50
[4] = Human coronavirus 229E, MRC5, 72 h; read-out: 229E MRC5 CPE assay (μM) EC90

SMILES	EC50 (229E; [1]) [µM]	EC90 (229E; [2]) [µM]	EC50 (OC43) [µM]	EC90 (OC43) [µM]	EC50 (229E; [3]) [µM]	EC90 (229E; [4]) [µM]
CCCC(CCC)C(=O)OCNc1ncnn2c([C@]3(C#N)O[C@H](COP(=O)(OCOC(=O)C(CCC)CCC)OCOC(=O)C(CCC)CCC)[C@@H](O)[C@H]3O)ccc12 [Compound 155]	0.1 to 0.5	> 0.5	> 0.5	> 0.5		
CCCN(CCC)S(=O)(=O)c1ccc(C(=O)OCO[P@@]2(=O)OCC3O[C@@](C#N)(c4ccc5c(N)ncnn45)[C@H](O)[C@@H]3O2)cc1 (stereo partly shown) [Compound 156]	0.1 to 0.5	> 0.5	> 0.5	> 0.5		
CCCN(CCC)S(=O)(=O)c1ccc(C(=O)OCO[P@]2(=O)OCC3O[C@@](C#N)(c4ccc5c(N)ncnn45)[C@H](O)[C@@H]3O2)cc1 (stereo partly shown) [Compound 157]	0.1 to 0.5	> 0.5	> 0.5	> 0.5		
CCCN(CCC)S(=O)(=O)c1ccc(C(=O)O[C@@H]2[C@@H]3OP(=O)(O)OC[C@H]3O[C@@]2(C#N)c2ccc3c(N)ncnn23)cc1 [Compound 158]	> 0.5	> 0.5	> 0.5	> 0.5		
CCCN(CCC)S(=O)(=O)c1ccc(C(=O)OCO[P@](=O)(N[C@@H](C)C(=O)OCC(CC)CC)OC[C@H]2O[C@@](C#N)(c3ccc4c(N)ncnn34)[C@H](O)[C@@H]2O)cc1 [Compound 160]	> 0.5	> 0.5	> 0.5	> 0.5		
CCCN(CCC)S(=O)(=O)c1ccc(C(=O)OCO[P@@](=O)(N[C@@H](C)C(=O)OCC(CC)CC)OC[C@H]2O[C@@](C#N)(c3ccc4c(N)ncnn34)[C@H](O)[C@@H]2O)cc1 [Compound 161]	> 0.5	> 0.5	> 0.5	> 0.5		
CCCN(CCC)S(=O)(=O)c1ccc(C(=O)OCO[P@@](=O)(NC(C)(C)C(=O)OC(C)C)OC[C@H]2O[C@@](C#N)(c3ccc4c(N)ncnn34)[C@H](O)[C@@H]2O)cc1 [Compound 162]	> 0.5	> 0.5	> 0.5	> 0.5		
CCCN(CCC)S(=O)(=O)c1ccc(C(=O)OCOP(=O)(NC(C)(C)C(=O)OC(C)C)OC[C@H]2O[C@@](C#N)(c3ccc4c(N)ncnn34)[C@H](O)[C@@H]2O)cc1 (stereo partly shown) [Compound 163]	> 0.5	> 0.5	> 0.5	> 0.5		
CCCN(CCC)S(=O)(=O)c1ccc(C(=O)OCOP(=O)(OCOC(=O)c2ccc(S(=O)(=O)N(CCC)CCC)cc2)OC[C@H]2O[C@@](C#N)(c3ccc4c(N)ncnn34)[C@H](O)[C@@H]2O)cc1 [Compound 164]	> 0.5	> 0.5	> 0.5	> 0.5		
CCC(CC)COC(=O)[C@H](C)N[P@@](=O)(OCOC(=O)c1cccnc1)OC[C@H]1O[C@@](C#N)(c2ccc3c(N)ncnn23)[C@H](O)[C@@H]1O [Compound 174]	> 0.5	> 0.5	> 0.5	> 0.5		
CCC(CC)COC(=O)[C@H](C)NP(=O)(OCOC(=O)c1cccnc1)OC[C@H]1O[C@@](C#N)(c2ccc3c(N)ncnn23)[C@H](O)[C@@H]1O (stereo partly shown) [Compound 175]	> 0.5	> 0.5	> 0.5	> 0.5		
CC(C)OC(=O)C(C)(C)N[P@](=O)(OCOC(=O)c1cccnc1)OC[C@H]1O[C@@](C#N)(c2ccc3c(N)ncnn23)[C@H](O)[C@@H]1O [Compound 176]	> 0.5	> 0.5	> 0.5	> 0.5		
CC(C)OC(=O)C(C)(C)NP(=O)(OCOC(=O)c1cccnc1)OC[C@H]1O[C@@](C#N)(c2ccc3c(N)ncnn23)[C@H](O)[C@@H]1O (stereo partly shown) [Compound 177]	> 0.5	> 0.5	> 0.5	> 0.5		
N#C[C@@]1(c2ccc3c(N)ncnn23)OC2CO[P@](=O)(OCOC(=O)c3cccnc3)O[C@H]2[C@H]1O (stereo partly shown) [Compound 179]	> 0.5	> 0.5	> 0.5	> 0.5		
N#C[C@@]1(c2ccc3c(N)ncnn23)OC2CO[P@@](=O)(OCOC(=O)c3cccnc3)O[C@H]2[C@H]1O (stereo partly shown) [Compound 180]	> 0.5	> 0.5	> 0.5	> 0.5		
N#C[C@@]1(c2ccc3c(N)ncnn23)O[C@@H]2COP(=O)(O)O[C@H]2[C@H]1OC(=O)c1cccnc1 [Compound 181]	> 0.5	> 0.5	> 0.5	> 0.5		
CCC(CC)COC(=O)[C@H](C)N[P@@](=O)(OCOC(=O)C(C)(C)C)OC[C@H]1O[C@@](C#N)(c2ccc3c(N)ncnn23)[C@H](O)[C@@H]1O [Compound 192]	0.1 to 0.5	> 0.5	0.1 to 0.5	> 0.5		

SMILES	EC50 (229E; [1]) [µM]	EC90 (229E; [2]) [µM]	EC50 (OC43) [µM]	EC90 (OC43) [µM]	EC50 (229E; [3]) [µM]	EC90 (229E; [4]) [µM]
CCC(CC)COC(=O)[C@H](C)NP(=O)(OCOC(=O)C(C)(C)C)OC[C@H]1O[C@@](C#N)(c2ccc3c(N)ncnn23)[C@H](O)[C@@H]1O (stereo partly shown) [Compound 193]	0.1 to 0.5	> 0.5	0.1 to 0.5	> 0.5		
CC(C)OC(=O)C(C)(C)N[P@](=O)(OCOC(=O)C(C)(C)C)OC[C@H]1O[C@@](C#N)(c2ccc3c(N)ncnn23)[C@H](O)[C@@H]1O [Compound 194]	0.1 to 0.5	> 0.5	0.1 to 0.5	> 0.5		
CC(C)OC(=O)C(C)(C)NP(=O)(OCOC(=O)C(C)(C)C)OC[C@H]1O[C@@](C#N)(c2ccc3c(N)ncnn23)[C@H](O)[C@@H]1O (stereo partly shown) [Compound 195]	0.1 to 0.5	> 0.5	0.1 to 0.5	> 0.5		
CC(C)(C)C(=O)OCOP(=O)(OCOC(=O)C(C)(C)C)OC[C@H]1O[C@@](C#N)(c2ccc3c(N)ncnn23)[C@H](O)[C@@H]1O [Compound 196]	0.1 to 0.5	> 0.5	0.1 to 0.5	> 0.5		
CC(C)(C)C(=O)OCO[P@@]1(=O)OCC2O[C@@](C#N)(c3ccc4c(N)ncnn34)[C@H](O)[C@@H]2O1 (stereo partly shown) [Compound 197]	0.1 to 0.5	> 0.5	> 0.5	> 0.5		
CC(C)(C)C(=O)OCO[P@]1(=O)OCC2O[C@@](C#N)(c3ccc4c(N)ncnn34)[C@H](O)[C@@H]2O1 (stereo partly shown) [Compound 198]	0.1 to 0.5	> 0.5	> 0.5	> 0.5		
CC(C)(C)C(=O)O[C@@H]1[C@@H]2O[P@@](=O)(O)OC[C@H]2O[C@@]1(C#N)c1ccc2c(N)ncnn12 [Compound 199]	> 0.5	> 0.5	> 0.5	> 0.5		
CC(C)(C)C(=O)O[C@@H]1[C@@H]2O[P@](=O)(O)OC[C@H]2O[C@@]1(C#N)c1ccc2c(N)ncnn12 [Compound 200]	> 0.5	> 0.5	> 0.5	> 0.5		
[2H]c1cc([C@]2(C#N)O[C@@H]3CO[P@](=O)(O)O[C@H]3[C@H]2OC(=O)C(CCC)CCC)n2ncnc(N)c12 [Compound 208]	> 0.5	> 0.5	0.1 to 0.5	0.1 to 0.5		
[2H]c1cc([C@]2(C#N)O[C@@H]3CO[P@@](=O)(O)O[C@H]3[C@H]2OC(=O)C(CCC)CCC)n2ncnc(N)c12 [Compound 209]	> 0.5	> 0.5	> 0.5	0.1 to 0.5		
[2H]c1cc([C@]2(C#N)O[C@@H]3CO[P@](=O)(OCOC(=O)C(CCC)CCC)O[C@H]3[C@H]2O)n2ncnc(N)c12 [Compound 210]	< 0.1	< 0.1	< 0.1	0.1 to 0.5		
[2H]c1cc([C@]2(C#N)O[C@@H]3CO[P@@](=O)(OCOC(=O)C(CCC)CCC)O[C@H]3[C@H]2O)n2ncnc(N)c12 [Compound 211]	< 0.1	< 0.1	0.1 to 0.5	> 0.5		
[2H]c1cc([C@]2(C#N)O[C@H](COP(=O)(OCOC(=O)C(CCC)CCC)OCOC(=O)C(CCC)CCC)[C@@H](O)[C@H]2O)n2ncnc(N)c12 [Compound 212]	0.1 to 0.5	> 0.5	0.1 to 0.5	> 0.5		
CC(C)(C)C(=O)OCO[P@@](=O)(OC[C@H]1O[C@@](C#N)(c2ccc3c(N)ncnn23)[C@H](O)[C@@H]1O)Oc1ccccc1 [Compound 214]			> 0.5	> 0.5	> 0.5	> 0.5
CC(C)(C)C(=O)OCO[P@](=O)(OC[C@H]1O[C@@](C#N)(c2ccc3c(N)ncnn23)[C@H](O)[C@@H]1O)Oc1ccccc1 [Compound 215]			> 0.5	> 0.5	> 0.5	> 0.5
CC(C)(C)C(=O)OCO[P@@](=O)(OC[C@H]1O[C@@](C#N)(c2ccc3c(N)ncnn23)[C@H](O)[C@@H]1O)Oc1cccc2ccccc12 [Compound 216]			> 0.5	> 0.5	> 0.5	> 0.5
CC(C)(C)C(=O)OCO[P@](=O)(OC[C@H]1O[C@@](C#N)(c2ccc3c(N)ncnn23)[C@H](O)[C@@H]1O)Oc1cccc2ccccc12 [Compound 217]			> 0.5	> 0.5	> 0.5	> 0.5
